According to patent publication US20260297070A1, “CYCLIC [COMPOUND LEFT OUT] WRN INHIBITORS” (Nimbus Wadjet, Inc., priority 2023, published 2026):

target: T1, human Werner helicase (WRN-BV08, Uniprot Q14191, amino acids 517-1235 with L1074F point mutation) (Homo sapiens, UniProt Q14191, L1074F); assay: WRN (BV08) ADP-Glo Assay; assay type: biochemical; conditions: 0.15 nM WRN, 5 μM ATP, 0.1 nM DNA duplex, 15 min preincubation, 60 min at 25° C., pH 7.5, 1% DMSO; read-out: ADP-Glo_hWRN_IC50
T1 construct: Uniprot Q14191, amino acids 517-1235 with L1074F point mutation; TEV-cleavable 8×His (C, cleaved yes); made in house; host or cells: Sf9 insect cells (baculovirus)
In short: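 0.15 nM WRN (aa 517-1235, L1074F, Sf9-expressed, tag cleaved) preincubated 15 min at 25 °C with compound, then 5 μM ATP and 0.1 nM DNA duplex added for 60 min. Buffer: 20 mM Bicine pH 7.5, 1 mM MgCl2, 10 mM KCl, 1 mM TCEP; 1% DMSO. ADP-Glo luminescence; IC50 by 4-parameter fit.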

T1 sequence (Q14191 with tags, fused parts or gaps L1074F limits assumed): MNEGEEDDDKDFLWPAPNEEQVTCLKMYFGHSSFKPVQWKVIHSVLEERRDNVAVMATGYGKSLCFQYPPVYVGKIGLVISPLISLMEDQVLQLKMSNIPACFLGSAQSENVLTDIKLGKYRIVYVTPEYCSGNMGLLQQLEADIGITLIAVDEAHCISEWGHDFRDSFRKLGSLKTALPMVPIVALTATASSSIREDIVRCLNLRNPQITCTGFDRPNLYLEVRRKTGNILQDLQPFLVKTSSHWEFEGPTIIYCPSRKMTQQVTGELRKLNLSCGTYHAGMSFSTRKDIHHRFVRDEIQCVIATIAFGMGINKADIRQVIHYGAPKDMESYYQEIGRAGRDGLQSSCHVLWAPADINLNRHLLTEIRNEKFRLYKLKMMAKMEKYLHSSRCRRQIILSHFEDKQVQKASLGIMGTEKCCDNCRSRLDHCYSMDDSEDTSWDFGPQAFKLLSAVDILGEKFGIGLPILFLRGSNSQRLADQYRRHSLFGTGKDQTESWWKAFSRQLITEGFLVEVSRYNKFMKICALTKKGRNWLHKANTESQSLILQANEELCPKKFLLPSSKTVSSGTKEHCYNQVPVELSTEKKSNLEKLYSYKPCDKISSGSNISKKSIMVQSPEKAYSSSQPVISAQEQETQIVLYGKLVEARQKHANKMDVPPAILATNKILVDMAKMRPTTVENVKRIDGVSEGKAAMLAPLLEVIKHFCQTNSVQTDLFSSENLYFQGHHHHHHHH

SMILES	IC50
COc1cc(CN(C(=O)Cc2ccc(-n3cccc3C)cc2F)C2C=CS(=O)(=O)C2)ccn1 (stereo not drawn) [I-69, N-(1,1-dioxo-2,3-dihydro-1lambda6-thiophen-3-yl)-2-[2-fluoro-4-(2-methyl-1H-pyrrol-1-yl)phenyl]-N-[(2-methoxypyridin-4-yl)methyl]acetamide]	< 500 nM
CC(C)(O)c1cc(CN(C(=O)Cc2ccc(-c3cccc(Cl)c3)cc2F)C2C=CS(=O)(=O)C2)ccn1 (stereo not drawn) [I-70, 2-{3′-chloro-3-fluoro-[1,1′-biphenyl]-4-yl}-N-(1,1-dioxo-2,3-dihydro-1lambda6-thiophen-3-yl)-N-{[2-(2-hydroxypropan-2-yl)pyridin-4-yl]methyl}acetamide]	< 500 nM
COc1cc(CN(C(=O)C(OC)c2ccc(-c3ccc(F)cc3)cc2F)C2C=CS(=O)(=O)C2)ccn1 (stereo not drawn) [I-71, 2-{3,4′-difluoro-[1,1′-biphenyl]-4-yl}-N-(1,1-dioxo-2,3-dihydro-1lambda6-thiophen-3-yl)-2-methoxy-N-[(2-methoxypyridin-4-yl)methyl]acetamide]	< 500 nM
Cc1cccn1-c1ccc(CC(=O)N(Cc2nc3ccccc3s2)C2C=CS(=O)(=O)C2)c(F)c1 (stereo not drawn) [I-73, N-[(1,3-benzothiazol-2-yl)methyl]-N-(1,1-dioxo-2,3-dihydro-1lambda6-thiophen-3-yl)-2-[2-fluoro-4-(2-methyl-1H-pyrrol-1-yl)phenyl]acetamide]	< 500 nM
COC(C(=O)N(Cc1nc(C2CC2)cs1)C1C=CS(=O)(=O)C1)c1ccc(S(F)(F)(F)(F)F)cc1 (stereo not drawn) [I-74, N-[(4-cyclopropyl-1,3-thiazol-2-yl)methyl]-N-(1,1-dioxo-2,3-dihydro-1lambda6-thiophen-3-yl)-2-methoxy-2-[4-(pentafluoro-lambda6-sulfanyl)phenyl]acetamide]	< 500 nM
CCN(C)C(=O)C(C(=O)N(Cc1ccnc(C(C)(C)O)c1)C1C=CS(=O)(=O)C1)c1ccc(-c2ccc(F)c(F)c2)cc1F (stereo not drawn) [I-75, N′-(1,1-dioxo-2,3-dihydro-1lambda6-thiophen-3-yl)-N-ethyl-N′-{[2-(2-hydroxypropan-2-yl)pyridin-4-yl]methyl}-N-methyl-2-{3,3′,4′-trifluoro-[1,1′-biphenyl]-4-yl}propanediamide]	< 500 nM
CC(C)(O)c1cc(CN(C(=O)Cn2cc(-c3ccccc3)cn2)C2C=CS(=O)(=O)C2)ccn1 (stereo not drawn) [I-76, N-(1,1-dioxo-2,3-dihydro-1lambda6-thiophen-3-yl)-N-{[2-(2-hydroxypropan-2-yl)pyridin-4-yl]methyl}-2-(4-phenyl-1H-pyrazol-1-yl)acetamide]	< 500 nM
CC(C)(O)c1cc(CN(C(=O)C(F)c2ccc(-c3ccc(F)c(F)c3)cc2F)C2C=CS(=O)(=O)C2)ccn1 (stereo not drawn) [I-77, N-(1,1-dioxo-2,3-dihydro-1lambda6-thiophen-3-yl)-2-fluoro-N-{[2-(2-hydroxypropan-2-yl)pyridin-4-yl]methyl}-2-{3,3′,4′-trifluoro-[1,1′-biphenyl]-4-yl}acetamide]	< 500 nM
Cc1cccn1-c1ccc(CC(=O)N(Cc2ccnc3c2CCC3(C)O)C2C=CS(=O)(=O)C2)c(F)c1 (stereo not drawn) [I-78, N-(1,1-dioxo-2,3-dihydro-1lambda6-thiophen-3-yl)-2-[2-fluoro-4-(2-methyl-1H-pyrrol-1-yl)phenyl]-N-({7-hydroxy-7-methyl-5H,6H,7H-cyclopenta[b]pyridin-4-yl}methyl)acetamide]	< 500 nM
CC(C)(O)c1csc(CN(C(=O)Cc2ccc(-c3ccc(F)cc3)cc2F)C2C=CS(=O)(=O)C2)n1 (stereo not drawn) [I-79, 2-(3,4′-difluoro-[1,1′-biphenyl]-4-yl)-N-(1,1-dioxido-2,3-dihydrothiophen-3-yl)-N-((4-(2-hydroxypropan-2-yl)thiazol-2-yl)methyl)acetamide]	< 500 nM
O=C(Cc1ccc(-c2ccc(F)cc2)cc1F)N(Cc1nc(C2CC2)cs1)C1C=CS(=O)(=O)C1 (stereo not drawn) [I-80, N-[(4-cyclopropyl-1,3-thiazol-2-yl)methyl]-2-{3,4′-difluoro-[1,1′-biphenyl]-4-yl}-N-(1,1-dioxo-2,3-dihydro-1lambda6-thiophen-3-yl)acetamide]	< 500 nM
COC(C(=O)N(Cc1ccnc(C(C)(C)O)c1)C1C=CS(=O)(=O)C1)c1ccc(S(F)(F)(F)(F)F)cc1 (stereo not drawn) [I-81, N-(1,1-dioxido-2,3-dihydrothiophen-3-yl)-N-((2-(2-hydroxypropan-2-yl)pyridin-4-yl)methyl)-2-methoxy-2-(4-(pentafluoro-λ^6-sulfaneyl)phenyl)acetamide]	< 500 nM
CC(C)(O)c1cc(CN(C(=O)Cc2ncc(-c3ccc(F)c(F)c3)cc2F)C2C=CS(=O)(=O)C2)ccn1 (stereo not drawn) [I-82, 2-[5-(3,4-difluorophenyl)-3-fluoropyridin-2-yl]-N-(1,1-dioxo-2,3-dihydro-1lambda6-thiophen-3-yl)-N-{[2-(2-hydroxypropan-2-yl)pyridin-4-yl]methyl}acetamide]	< 500 nM
O=C(Cc1ccc(-n2cccc2)cc1)N(Cc1nc(C2CC2)cs1)[C@@H]1C=CS(=O)(=O)C1 [I-83, N-[(4-cyclopropyl-1,3-thiazol-2-yl)methyl]-N-[(3R)-1,1-dioxo-2,3-dihydro-1lambda6-thiophen-3-yl]-2-[4-(1H-pyrrol-1-yl)phenyl]acetamide]	< 500 nM
CCOc1cc(CN(C(=O)Cc2ccc(-c3ccc(F)cc3)cc2F)C2C=CS(=O)(=O)C2)ccn1 (stereo not drawn) [I-84, 2-{3,4′-difluoro-[1,1′-biphenyl]-4-yl}-N-(1,1-dioxo-2,3-dihydro-1lambda6-thiophen-3-yl)-N-[(2-ethoxypyridin-4-yl)methyl]acetamide]	500 to 5000 nM
COc1cc(CN(C(=O)Cn2cc(-c3ccc(Cl)cc3)cn2)C2C=CS(=O)(=O)C2)ccn1 (stereo not drawn) [I-85, 2-[4-(4-chlorophenyl)-1H-pyrazol-1-yl]-N-(1,1-dioxo-2,3-dihydro-1lambda6-thiophen-3-yl)-N-[(2-methoxypyridin-4-yl)methyl]acetamide]	< 500 nM
COc1cc(CN(C(=O)C(OC)c2ccc(-c3ccc(F)cc3)cc2)C2C=CS(=O)(=O)C2)ccn1 (stereo not drawn) [I-86, N-(1,1-dioxo-2,3-dihydro-1lambda6-thiophen-3-yl)-2-{4′-fluoro-[1,1′-biphenyl]-4-yl}-2-methoxy-N-[(2-methoxypyridin-4-yl)methyl]acetamide]	500 to 5000 nM
COc1cc(CN(C(=O)Cc2ccc(-c3ccc(F)cc3)cc2F)C2C=CS(=O)(=O)C2)ccn1 (stereo not drawn) [I-87, 2-{3,4′-difluoro-[1,1′-biphenyl]-4-yl}-N-(1,1-dioxo-2,3-dihydro-1lambda6-thiophen-3-yl)-N-[(2-methoxypyridin-4-yl)methyl]acetamide]	500 to 5000 nM
O=C(Cc1ccc(-c2ccc(F)cc2)cc1)N(Cc1nc(C2CC2)cs1)C1C=CS(=O)(=O)C1 (stereo not drawn) [I-88, N-[(4-cyclopropyl-1,3-thiazol-2-yl)methyl]-N-(1,1-dioxo-2,3-dihydro-1lambda6-thiophen-3-yl)-2-{4′-fluoro-[1,1′-biphenyl]-4-yl}acetamide]	500 to 5000 nM
CN(C)c1cc(CN(C(=O)Cc2ccc(S(F)(F)(F)(F)F)cc2)C2C=CS(=O)(=O)C2)ccn1 (stereo not drawn) [I-89, N-{[2-(dimethylamino)pyridin-4-yl]methyl}-N-(1,1-dioxo-2,3-dihydro-1lambda6-thiophen-3-yl)-2-[4-(pentafluoro-lambda6-sulfanyl)phenyl]acetamide]	500 to 5000 nM
Cc1cccn1-c1ccc(CC(=O)N(Cc2ccnc(C3(O)CC3)c2)C2C=CS(=O)(=O)C2)c(F)c1 (stereo not drawn) [I-90, N-(1,1-dioxo-2,3-dihydro-1lambda6-thiophen-3-yl)-2-[2-fluoro-4-(2-methyl-1H-pyrrol-1-yl)phenyl]-N-{[2-(1-hydroxycyclopropyl)pyridin-4-yl]methyl}acetamide]	500 to 5000 nM
COc1cc(CN(C(=O)Cc2ccc(-c3cccc(F)c3)cc2F)C2C=CS(=O)(=O)C2)ccn1 (stereo not drawn) [I-91, 2-{3,3′-difluoro-[1,1′-biphenyl]-4-yl}-N-(1,1-dioxo-2,3-dihydro-1lambda6-thiophen-3-yl)-N-[(2-methoxypyridin-4-yl)methyl]acetamide]	500 to 5000 nM
COc1cc(CN(C(=O)C(OC)c2ccc(S(F)(F)(F)(F)F)cc2)C2C=CS(=O)(=O)C2)ccn1 (stereo not drawn) [I-92, N-(1,1-dioxo-2,3-dihydro-1lambda6-thiophen-3-yl)-2-methoxy-N-[(2-methoxypyridin-4-yl)methyl]-2-[4-(pentafluoro-lambda6-sulfanyl)phenyl]acetamide]	500 to 5000 nM
COc1cc(CN(C(=O)C2Cc3cc(-n4cccc4)ccc32)C2C=CS(=O)(=O)C2)ccn1 (stereo not drawn) [I-93, N-(1,1-dioxo-2,3-dihydro-1lambda6-thiophen-3-yl)-N-[(2-methoxypyridin-4-yl)methyl]-3-(1H-pyrrol-1-yl)bicyclo[4.2.0]octa-1,3,5-triene-7-carboxamide]	500 to 5000 nM
COc1cc(CN(C(=O)Cn2cc(-c3ccccc3)cn2)C2C=CS(=O)(=O)C2)ccn1 (stereo not drawn) [I-94, N-(1,1-dioxo-2,3-dihydro-1lambda6-thiophen-3-yl)-N-[(2-methoxypyridin-4-yl)methyl]-2-(4-phenyl-1H-pyrazol-1-yl)acetamide]	500 to 5000 nM
COc1cc(CN(C(=O)Cc2ccc(-n3cccc3)cc2F)C2C=CS(=O)(=O)C2)ccn1 (stereo not drawn) [I-95, N-(1,1-dioxo-2,3-dihydro-1lambda6-thiophen-3-yl)-2-[2-fluoro-4-(1H-pyrrol-1-yl)phenyl]-N-[(2-methoxypyridin-4-yl)methyl]acetamide]	500 to 5000 nM
Cc1cccn1-c1ccc(CC(=O)N(Cc2ccnc(N(C)C)c2)C2C=CS(=O)(=O)C2)c(F)c1 (stereo not drawn) [I-96, N-{[2-(dimethylamino)pyridin-4-yl]methyl}-N-(1,1-dioxo-2,3-dihydro-1lambda6-thiophen-3-yl)-2-[2-fluoro-4-(2-methyl-1H-pyrrol-1-yl)phenyl]acetamide]	500 to 5000 nM
